Patent US20250248979A1, “NOVEL GPX4 INHIBITORS AND USES THEREOF” (THE TRUSTEES OF COLUMBIA UNIVERSITY IN THE CITY OF NEW YORK, priority 2022, published 2025)
Converted amounts (≈) assume the structure as drawn. Read-outs that look alike come from different tables or passages of the source.

How the values were obtained:
[1] = Kinetic aqueous solubility
in vitro [2] = assay type: in vitro ADME, mouse
Protocol: (§1) […]. The incubation timepoints measured were 0, 5, 10, 15, 30, and 45 minutes. All samples were prepared in duplicate and analyzed by LC-MS/MS.

GPX4 = molecular target: T1, GPX4 (Homo sapiens, UniProt P36969); test: GPX4 activity assay in cell lysates (NADPH-coupled); assay type: biochemical; design: endogenous in cells; host or cells: A-673 cell lysate
T1 sequence (P36969 1-170 isoform P36969-2): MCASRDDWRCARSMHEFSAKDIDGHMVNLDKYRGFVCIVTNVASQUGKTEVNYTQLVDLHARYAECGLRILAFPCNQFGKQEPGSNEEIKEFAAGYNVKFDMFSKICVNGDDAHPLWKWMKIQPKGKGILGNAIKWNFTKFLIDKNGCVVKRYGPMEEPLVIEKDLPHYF
In short: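 Native GPX4 in lysates of A-673 cells grown with 20 nM sodium selenite; lysate preincubated with compound 45 min at 37 °C in pH 8.0 buffer with 3 mM GSH, 0.5 mM NADPH and glutathione reductase. Reaction started with phosphatidylcholine hydroperoxide; NADPH consumption followed at 340 nm over 25 min; triplicates.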

HT-1080 cells = test: Cellular dose response assay, HT-1080 with and without Fer-1; assay type: cell-based, human; details: for Selectivity: ferroptosis selectivity
In short: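 Viability by CellTiter-Glo luminescence after 48 h exposure at 37 °C, 5% CO2. Compounds ran as 12-point 2-fold series, with or without Fer-1, in triplicate at 0.4% final DMSO, on cells plated at 1500/well the day before; SD from technical triplicates shown.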

in vitro [3] = assay type: in vitro ADME, human; details: for Microsome Stability t1/2 (min) human: microsomes
Protocol: as §1

[4] = not given; remark: listed apart in the source
[5] = tested on: DTP cells derived from PC9; test: Drug-tolerant persister cell model, DTP cells; details: for % Viability Persister: 48 hours
[6] = 1% DMSO, Phosphate Buffered Saline pH 7.4, 1 hour, ambient, UV/Vis absorbance
[7] = HT1080 + Fer-1, read-out: IC50 (uM) HT1080 + Fer-1
[8] = HT1080, without Fer-1, read-out: IC50 (uM) HT1080

In the case of `Cn1nc(C(=O)NC(C)(C)COC(=O)CCl)c2ccc(-c3cccc(Cl)c3)cc21` [QW-458], the “Solubility” value [1, 6] is reported as 6.1 µM (≈ 2.65 µg/mL), the “Solubility” value ([1]; aqueous solubility, Table 9) is reported as 6.1 µM (≈ 2.65 µg/mL) and the “Microsome Stability t1/2 (min) mouse” value (in vitro [2]; mouse, microsomes) is reported as 1.9 min. The “GPX4% inhibition at 5 μM” value (GPX4) was 80.5 ± 3.0%, the IC50 (HT-1080 cells; [7]) was 24 µM and the IC50 (HT-1080 cells; [8]) was 2 µM. For the same compound, the Selectivity (HT-1080 cells; HT1080 + Fer-1 vs HT1080) was 12 and the “Microsome Stability t1/2 (min) human” value (in vitro [3]) was 1.9 min.
With `COc1ccc(-c2ccc3c(C(=O)NC(C)(C)COC(=O)CCl)nn(C)c3c2)cc1C` [QW-488] the “Solubility” value [1, 6] was 5.4 µM (≈ 2.4 µg/mL), the “Solubility” value ([1]; aqueous solubility, Table 9) was 5.4 µM (≈ 2.4 µg/mL) and the “Microsome Stability t1/2 (min) mouse” value (in vitro [2]; mouse, microsomes) was 1.1 min. The “GPX4% inhibition at 5 μM” value (GPX4) was 87.3 ± 3.3% and the “Microsome Stability t1/2 (min) human” value (in vitro [3]) was 1.8 min.
For `CC(C)Oc1ccc(-c2ccc3c(C(=O)NC(C)(C)COC(=O)CCl)nn(C)c3c2)cc1` [QW-506], the “Solubility” value [1, 6] was 1.7 µM (≈ 0.779 µg/mL), the “Solubility” value ([1]; aqueous solubility, Table 9) was 1.7 µM (≈ 0.779 µg/mL) and the “Microsome Stability t1/2 (min) mouse” value (in vitro [2]; mouse, microsomes) was 1.7 min. For the same compound, the “GPX4% inhibition at 5 μM” value (GPX4) was 75.4 ± 3.9% and the “Microsome Stability t1/2 (min) human” value (in vitro [3]) was 2.9 min.
In the case of `COc1ccc(CNS(=O)(=O)c2ccc(-c3ccc4c(C(=O)NC(C)(C)COC(=O)CCl)nn(C)c4c3)cc2)cc1` [QW-658], the “Plasma Stability t1/2 (min) mouse” value is reported as 6.2 min, the “Plasma Stability t1/2 (min) human” value [4] is reported as 12.5 min and the “GPX4% inhibition at 2.5 μM” value (GPX4) is reported as 26.3 ± 63.2%. The “GPX4% inhibition at 5 μM” value (GPX4) was 20.9 ± 14.0%, the IC50 (HT-1080 cells; [7]) was 14.6 µM and the IC50 (HT-1080 cells; [8]) was 3.5 µM. For the same compound, the Selectivity (HT-1080 cells; HT1080 + Fer-1 vs HT1080) was 4.2.
In the case of `COc1ccc(-c2ccc3c(C(=O)NC(COC(=O)CCl)C(F)(F)F)nn(C)c3c2)cc1Cl` (stereo not shown) [QW-686], the “Plasma Stability t1/2 (min) mouse” value is reported as 23.8 min, the “Plasma Stability t1/2 (min) human” value [4] is reported as 16.6 min and the “GPX4% inhibition at 2.5 μM” value (GPX4) is reported as 35.8 ± 14.3%.
For `CC(C)(NC(=O)c1nn(Cc2ccc(Cl)cc2)c2cc(-c3ccc(N4CCOCC4)c(Cl)c3)ccc12)C(C)(C)OC(=O)CCl` [QW-811], the “selectivity for DTPs vs PC9 parental cells, result in words” value [5] was “selective and similar or stronger cytotoxicity to DTP cells”, the “% Viability Persister” value ([5]; dose 1.0 μM) was 93.00% and the “% Viability Persister” value ([5]; dose 10.0 μM) was 4.75%. For the same compound, the “GPX4% inhibition at 2.5 μM” value (GPX4; 4th generation) was 47.4 ± 8.9%, the Selectivity (HT-1080 cells; IC50 with Fer-1 / IC50) was 45.4 and the IC50 (HT-1080 cells; with Fer-1, Table 10, read-out: IC50 (μM) HT1080 + Fer-1) was 12.7 µM. For the same compound, the IC50 (HT-1080 cells; without Fer-1, Table 10, read-out: IC50 (μM) HT1080) was 0.28 µM.
For `C[C@]12CC[C@H]3[C@@H](CCC4=CC(=O)CC[C@@]43C)[C@@H]1CC[C@@H]2O` [Testosterone, reference compound], the “Microsome Stability t1/2 (min) mouse” value (in vitro [2]; mouse liver microsomes) was 5.3 min and the half-life (in vitro [3]; pH 7.4, human liver microsomes, read-out: Microsome Stability t1/2 (min) human) was 9.5 min.
